Data as given in the NIST ThermoML archive (doi:10.1016/j.jct.2013.09.024).

Legend:
[1] = Liquid, Vibrating tube method
[2] = xn = mol fraction of the nth substance listed; details: Liquid, Vibrating tube method, x2 = 0

CC1(C)C(=O)[C@]2(C)CC[C@H]1C2 [(-)-fenchone]
mass density [kg/m3], [1]
Details | 101 kPa | 20000 kPa | 25000 kPa | 30000 kPa | 35000 kPa | 40000 kPa
283.15 K | 953.27 | 965.6 | 968.5 | 971.3 | 974 | 976.6
298.15 K | 940.67 | 954 | 957.1 | 960 | 962.9 | 965.7
313.15 K | 928.04 | 942.3 | 945.6 | 948.7 | 951.8 | 954.7
328.15 K | 915.39 | 930.8 | 934.2 | 937.6 | 940.9 | 944

CCO [ethanol]
mass density [kg/m3], [1]
Details | 101 kPa | 20000 kPa | 25000 kPa | 30000 kPa | 35000 kPa | 40000 kPa
283.15 K | 797.99 | 813.3 | 816.8 | 820.2 | 823.4 | 826.6
298.15 K | 785.2 | 801.7 | 805.4 | 809 | 812.5 | 815.8
313.15 K | 772.15 | 790.1 | 794.1 | 797.8 | 801.5 | 805
328.15 K | 758.71 | 778.1 | 782.4 | 786.4 | 790.3 | 794.1

CCO [ethanol] + CC1(C)C(=O)[C@]2(C)CC[C@H]1C2
mass density [kg/m3], [2]
Details | 101 kPa | 20000 kPa | 25000 kPa | 30000 kPa | 35000 kPa | 40000 kPa
283.15 K | 797.99 | 813.3 | 816.8 | 820.2 | 823.4 | 826.6
298.15 K | 785.2 | 801.7 | 805.4 | 809 | 812.5 | 815.8
313.15 K | 772.15 | 790.1 | 794.1 | 797.8 | 801.5 | 805
328.15 K | 758.71 | 778.1 | 782.4 | 786.4 | 790.3 | 794.1
